The record followed here is patent publication US8178688B2, “Benzamidine derivatives, process for the preparation thereof and pharmaceutical composition comprising the same” (Dong Wha Pharmaceutical Co., Ltd., priority 2004, dated 2012).

The subject of data set [1] is osteoclast differentiation. The experiment in a line: Inhibitory effects on osteoclast differentiation (co-culture of bone marrow cells with osteoblast, TRAP staining). Format: cell-based, mice. As to conditions: co-culture of bone marrow cells and osteoblast, 7 days, TRAP-positive osteoclasts versus controls; for inhibition at 1 µM: Mus musculus, Osteoclast, 168 h, read-out: % inhibitory activity on osteoclastogenesis. In a few lines:
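Bone marrow cells from 6–8-week male ddY mice co-cultured with neonatal ICR mouse calvarial osteoblasts in α-MEM/FBS with dexamethasone (10^−7M) and vitamin D3 (10^−8M) for 7 days, compound and medium renewed every 2–3 days. TRAP-positive cells with ≥3 nuclei counted; inhibition given as percent of control.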

Another data set deals with ovariectomized ddY mouse. The data set is described as follows: Therapeutic effect in the ovariectomized osteoporetic mouse model (trabecular bone volume of the femur). Type of data set: in vivo, ddY mice. As to conditions: 50 mg/kg/day oral gavage for 4 weeks from 4 weeks after ovariectomy, salts (methansulfonic acid or HCl); for change in vivo at 50 mg/kg: Mus musculus, 672 h, read-out: Changes on TBV (% changes vs vehicle control). How it is done:
The therapeutic effects of each benzamidine derivates were evaluated on the ovariectomized ddY mouse. Benzamidine derivates were dosed from 4 weeks after operation for 4 weeks and the changes on the trabecular bone volume (TBV) of the femur were observed via histomorphometry.
Female ddY mice (6-wk old upon receipt, SLC, Japan) were used after acclimatization for 7 days. Animals were allocated 5 per polycarbonate cage in a temperature (20-25° C.) and humidity (30-35%) controlled room. Light:dark cycle was 12 hr:12 hr and feed (Samyang, Korea) and water were supplied free to access.
Salts of benzamidine derivates (Methansulfonic acid or HCl) were used for the test substances of this invention. Test substances are dissolved and/or suspended in injectable distilled water and administered at a dosage volume of 10 ml/kg by oral gavage. All test substances are dosed from 4 weeks after operation for 4 weeks at 50 mg/kg/day.
To induce estrogen-deficient osteoporosis, bilateral ovaries are removed and then closed by routine methods. Operation was conduct under Ketamine hydrochloride and xylazine hydrochloride anesthesia.
The left femur of each mouse were separated at sacrifice, and fixed in 10% neutral buffered formalin (NBF), then decalcified in decalcifying solution (24.4% formic acid, and 0.5N sodium hydroxide) for 5 days (mixed decalcifying solution was exchanges once a day for 5 days). After the dexalcification, the femur was embedded in paraffin, sectioned (3˜4 μm) and stained with hematoxylin-eosin stain.
TBV was calculated using automated image analysis (analySIS Image Processing; SIS, Germany) under magnification of ×200 in the uniform area of trochlea epiphyseal regions (growth plate regions were excluded) of prepared histological specimens. TBV was calculated as percentage (%) levels.
The changes of TBV compared to that of vehicle control are calculated as following Equation 1 to help the understanding of the efficacy of test substances. Percentage changes=[((TBV of a−TBV of b)/TBV of b)×100] Equation 1

Data set [2] relates to mouse models of ovalbumin-induced asthma. The experiment in a line: Therapeutic effect in mouse model of asthma induced with ovalbumin (lung weight, total leukocytes in blood and BALF). Type of data set: in vivo, C57BL/6 mice. Particulars: for Changes on the lung weight, Absolute: 200 mg/kg oral once a day from sensitization, vehicle control 0.134 ± 0.012, sham 0.110 ± 0.009; for Changes on the lung weight, Relative (%) / Total leukocytes in peripheral blood (×10^3/1 mm^3) / Total leukocytes in BALF (×10^5/1 ml): 200 mg/kg oral once a day; for Changes on the lung weight, Relative (%): % of body weight, vehicle control 0.780 ± 0.103, sham 0.694 ± 0.049; for Total leukocytes in peripheral blood (×10^3/1 mm^3): vehicle control 14.49 ± 0.88, sham 10.27 ± 0.93; for Total leukocytes in BALF (×10^5/1 ml): vehicle control 75.68 ± 4.67, sham 51.75 ± 2.15. How it is done: The benzamidine compounds were assated for therapeutic effect on allergic inflammation in mouse models of ovalbumin-induced asthma. Starting on the day of immunization the benzamidine compounds were dosed for 17 consecutive days. The experimental animals were re-exposed to ovalbumin 14 days after the sensitization and then sacrificed 3 days after the re-exposure. Changes in lung weight, cellular components of peripheral blood and bronchoalveolar lavage fluid, and lung histopathology were observed.
A total of 110 female C57BL/6 mice (7-week-old, SLC, Japan) were adapted to a laboratory environment for 6 days before being used in earnest experiments. While being housed at a densirt of five in a plastic cage, the experimental animals were breed in a breeding room with controlled temperature (20-25° C.) and humidity (30-35%). Under light-dark cycles of 12 hours, mice were allowed to have free access to feedstuff and tap water. While asthma was induced in 100 mice by ovalbumin, 10 mice were used as a non-treated group.
200 mg of benzamidine compounds (Methansulfonic acid or Hydrochloride) were completely dissolved in 5 ml of sterilized distilled water. The benzamidine compound in the solutions was orally administered at doses of 200 mg per kg of body weight once a day from the day of the sensitization with ovalbumin. The control group was administered with equal volumes of sterilized distilled water in the same manner.
A solution of 200 μg of ovalbumin (Grade VI; Sigma, st. Louis, Mo., USA) and 180 mg of aluminium hydroxide (Al(OH)3, dried powder gel; Aldrich, Milwaukee, USA) in 4 ml of physiological saline was allowed to stand at 4° C. overnight and was administered to the experimental animals (200 μl, abdominal injection) for sensitization. As for the non-treated group, a solution of only aluminium hydroxide in saline was injected. 15 days after sensitization, a 1.5% ovalbumin solution was sprayed in air using a nebulizer, followed by exposing the experimental animals to the spray for 10 min to induce asthma therein. The non-treated group was exposed only to saline in the same manner. All the experimental animals were sacrificed 3 days after the exposure.
On the final day of experiment, the lungs were separated form adjacent organs. The removed lungs were weight among individual animals, the relative weight of the lungs was calculated as a percentage of body weight using the following Equation 3. Relative weight of Lung(%)=(Absolute lung weight/Body weight)×100 Equation 3
On the final day of experiment, all the experimental animals were etherized and underwent laparotomy to expose the abdominal vena cava, from which 1 ml of blood was the taken. Using a hemocytometer, a blood sample was measured for total leukocyte counts in a ×10^3/1 mm^3 units.
On the final day of experiment, secretions present in bronchi and alveola were examined for cyrological constitution. After veing etherized, the experimental animals were operated to open the cervical region and the thorax. The jugular vein was allowed to bleed, followed by endotracheal intubation. 3 ml of phosphate buffered saline was injected twice through the tube and the thorax was massaged for 30 sec to obtain cell suspension from the lungs. Using a hemocytometer, a […] was measured for total leukocyte counts in a ×10^5/1 ml units.

Like-named read-outs stand apart in the source and are kept apart here.

For the molecule `Cc1nc(-c2ccc(OCCCCCOc3ccc(C(=N)NO)cc3)cc2)cs1` [Example 3, N-hydroxy-4-(5-[4-(2-methyl-1,3-thiazol-4-yl)phenoxy]pentoxy)-benzamidine], the melting point (as a rule, the temperature, or range, at which the solid turns liquid) was 139 to 140 °C. For the same molecule, the inhibition at 1 µM in data set [1] (1 μm) turned out to be 41.4%.

In the case of `N=C(NO)c1ccc(OCCCCCOc2ccc(-c3csc(-c4ccccc4)n3)cc2)cc1` [Example 6, N-hydroxy-4-(5-[4-(2-phenyl-1,3-thiazol-4-yl)phenoxy]pentoxy)-benzamidine], the melting point was in the range of 133 to 141 °C.

The molecule `Cc1sc(-c2ccccc2)nc1-c1ccc(OCCCCCOc2ccc(C(=N)NO)cc2)cc1` [Example 12, N-hydroxy-4-(5-[4-(5-methyl-2-phenyl-1,3-thiazol-4-yl)phenoxy]pentoxy)-benzamidine] had a melting point of 124 to 130 °C.

As to `Cc1nc(-c2ccc(OCCCCCOc3ccc(C(=N)NO)cc3)cc2)c(C2CCCC2)s1` [Example 43, N-hydroxy-4-(5-[4-(5-cyclopentyl-2-methyl-1,3-thiazol-4-yl)phenoxy]pentoxy)-benzamidine], the inhibition at 1 µM in data set [1] (1 μm) turned out to be 98.6%. In addition, the change in vivo at 50 mg/kg in the data set with ovariectomized ddY mouse stood at 155%.

Regarding `CCCNc1nc(-c2ccc(OCCCCCOc3ccc(C(=N)NO)cc3)cc2)c(CC2CCCC2)s1` [Example 111, N-hydroxy-4-(5-[4-(5-cyclopentylmethyl-2-propylamino-1,3-thiazol-4-yl)phenoxy]pentoxy)-benzamidine], the inhibition at 1 µM in data set [1] (1 m) amounted to 99.5%. Also, the change in vivo at 50 mg/kg in the data set with ovariectomized ddY mouse was determined as 69.3%.

In the case of `CCCCc1sc(N(C)Cc2cccnc2)nc1-c1ccc(OCCCCCOc2ccc(C(=N)NO)cc2)cc1` [Example 145, N-hydroxy-4-(5-[4-(5-butyl-2-(methyl-(pyridin-3-yl-methyl)amino)-1,3-thiazol-4-yl)phenoxy]pentoxy)-benzamidine], the inhibition at 1 µM in data set [1] (1 m) stood at 96.2%. Also, the change in vivo at 50 mg/kg in the data set on ovariectomized ddY mouse was 91.7%.

For `CCCCc1sc(N(C)C)nc1-c1ccc(OCCCCCOc2ccc(C(=N)NO)cc2)cc1` [Example 152, N-hydroxy-4-(5-[4-(5-butyl-2-dimethylamino-1,3-thiazol-4-yl)phenoxy]pentoxy)-benzamidine], the inhibition at 1 µM in data set [1] (1 m) amounted to 83.8%. For the same molecule, in the data set on ovariectomized ddY mouse, the change in vivo at 50 mg/kg is 71.5%.

With `Cc1sc(N2CCOCC2)nc1-c1ccc(OCCCCCOc2ccc(C(=N)NO)cc2)cc1` [Example 165, N-hydroxy-4-(5-[4-(5-methyl-2-morpholino-1,3-thiazol-4-yl)phenoxy]pentoxy)-benzamidine], the inhibition at 1 µM in data set [1] (1 m) was 66.9%. In addition, in the data set on ovariectomized ddY mouse, the change in vivo at 50 mg/kg stood at 37.5%.

With `N=C(NO)c1ccc(OCCCCCOc2ccc(-c3nc(N4CCCCC4)sc3CC3CCCC3)cc2)cc1` [Example 167, N-hydroxy-4-(5-[4-(5-cyclopentylmethyl-2-piperdino-1,3-thiazol-4-yl)phenoxy]pentoxy)-benzamidine], the “% inhibitory activity on osteoclastogenesis” value in data set [1] stood at 99.0%. For the same molecule, the “Changes on TBV (% changes vs vehicle control)” value in the data set with ovariectomized ddY mouse was 55.2%.

With `N=C(NO)c1ccc(OCCCCCOc2ccc(-c3nc(N4CCOCC4)sc3CC3CCCC3)cc2)cc1` [Example 168, N-hydroxy-4-(5-[4-(5-cyclopentylmethyl-2-morpholino-1,3-thiazol-4-yl)phenoxy]pentoxy)-benzamidine], the inhibition at 1 µM in data set [1] (1 m) turned out to be 87%. In the data set on ovariectomized ddY mouse, the change in vivo at 50 mg/kg is 56.6%.

As for `CC(C)c1sc(N2CCOCC2)nc1-c1ccc(OCCCCCOc2ccc(C(=N)NO)cc2)cc1` [Example 169, N-hydroxy-4-(5-[4-(5-isopropyl-2-morpholino-1,3-thiazol-4-yl)phenoxy]pentoxy)-benzamidine], the inhibition at 1 µM in data set [1] (1 m) came to 83.3%. Also, in data set [2], the “Changes on the lung weight, Absolute” value was 0.113 ± 0.003 g; the “Changes on the lung weight, Relative (%)” value is listed as 0.696 ± 0.032 %; the “Total leukocytes in peripheral blood (×10^3/1 mm^3)” value was 13.20 ± 2.22 ×10^3/1 mm^3; the “Total leukocytes in BALF (×10^5/1 ml)” value is 72.25 ± 7.95 ×10^5/1 ml. In the data set with ovariectomized ddY mouse, the change in vivo at 50 mg/kg worked out at 186%.

For the molecule `Cc1nc(-c2ccc(OCCCCCNc3ccc(C(=N)NO)cc3)cc2)c(C(C)C)s1` [Example 177, N-hydroxy-4-(5-[4-(5-isopropyl-2-methyl-1,3-thiazol-4-yl)phenoxy]-pentylamino)-benzamidine], in data set [1] (1 m), the inhibition at 1 µM stood at 96.1%. For the same molecule, the change in vivo at 50 mg/kg with ovariectomized ddY mouse worked out at 88.7%.

Consider `Cc1nc(-c2ccc(OCC=CCOc3ccc(C(=N)NO)cc3)cc2)c(C(C)C)s1` [Example 184, N-hydroxy-4-(4-[4-(5-isopropyl-2-methyl-1,3-thiazol-4-yl)-phenoxy]-2-butenyloxy)-benzamidine], for which the inhibition at 1 µM in data set [1] (1 m) turned out to be 74.5%. In addition, in the data set with ovariectomized ddY mouse, the change in vivo at 50 mg/kg came out at 147%.

As to `Cc1nc(-c2ccc(OCc3ccc(COc4ccc(C(=N)NO)cc4)cc3)cc2)c(C(C)C)s1` [Example 185, N-hydroxy-4-(4-[4-(5-isopropyl-2-methyl-1,3-thiazol-4-yl)-phenoxymethyl]-benzyloxy)-benzamidine], the inhibition at 1 µM in data set [1] (1 m) was 89.4%. Besides, in data set [2], the “Changes on the lung weight, Absolute” value was 0.116 ± 0.003 g; the “Changes on the lung weight, Relative (%)” value stood at 0.720 ± 0.061%; the “Total leukocytes in peripheral blood (×10^3/1 mm^3)” value is 11.90 ± 1.45 # ×10^3/1 mm^3; the “Total leukocytes in BALF (×10^5/1 ml)” value is reported as 66.47 ± 7.41 # ×10^5/1 ml. Besides, in the data set on ovariectomized ddY mouse, the change in vivo at 50 mg/kg was 152%.

On to `Cc1nc(-c2ccc(OCCCCCOc3ccc(C(=N)NO)c(F)c3)cc2)c(C(C)C)s1` [Example 187, N-hydroxy-2-fluoro-4-(5-[4-(5-isopropyl-2-methyl-1,3-thiazol-4-yl)-phenoxy]-pentoxy)-benzamidine], for which, in data set [1] (1 m), the inhibition at 1 µM was determined as 92.5%. For the same molecule, the change in vivo at 50 mg/kg in the data set on ovariectomized ddY mouse was 117%.

With `Cc1nc(-c2ccc(OCCCCCOc3ccc(C(=N)NO)c(O)c3)cc2)c(C(C)C)s1` [Example 188, 2,N-dihydroxy-4-(5-[4-(5-isopropyl-2-methyl-1,3-thiazol-4-yl)-phenoxy]-pentoxy)-benzamidine], the inhibition at 1 µM in data set [1] (1 m) was determined as 82.6%. Further, the change in vivo at 50 mg/kg with ovariectomized ddY mouse was 92%.
